Source: article PMC9894685, “Abscisic acid agonists suitable for optimizing plant water use” (Frontiers in Plant Science, 2023)

Legend:
[1] = system: T1, RCAR11-ABI2; experiment: In vitro phosphatase assay, ABI2 with RCAR11; assay type: biochemical, Arabidopsis thaliana; settings: 100 nM ABI2, 200 nM RCAR11
T1 construct: 6xHis (N); made in house; host or cells: Escherichia coli BL21
Procedure: (§1) Expression, purification, and analysis of RCAR and PP2C proteins were performed essentially as described ([Ruschhaupt et al., 2019]). Briefly, the ABA receptors RCAR1, RACR8, and RCAR11 were expressed with an aminoterminal histidine tag using the pSEVA431_LII_6xHIS::RCAR1/RCAR8/RCAR11. ABA coreceptors were expressed as histidine-tagged fusions with the maltose-binding protein using the pSEVA431_LII_6xHIS::MBP::ABI2/HAB1. All constructs were transformed and expressed in Escherichia coli strain BL21 and purified to homogeneity according to supplier’s instruction (GE Healthcare, Chicago, USA). The receptor assay was performed with 100 nM PP2C and a two-fold molar excess of RCAR. Values are means ± SD of three replicates. […] The maximum inhibition was set to 100% in the figures. The phosphatase activity was measured using 4-methylumbelliferyl-phosphate as a substrate ([Meinhard and Grill, 2001]). The increase in fluorescence was recorded over 25 min with excitation and emission wavelengths at 360 and 460 nm, respectively, using a Synergy 2 plate reader (Bio-Tec, Winooski, USA).

[2] = system: ABI1 with RCAR11/PYR1; parameters: method as in Frackenpohl et al., 2018; settings: ref Frackenpohl et al., 2018; cited from earlier work
[3] = system: wheat plants; experiment: Foliar administration and thermal imaging of leaf temperature, wheat; assay type: in vivo, Triticum aestivum; settings: 100 μM, 24 h after administration
Procedure: (§2) Thermal imaging was carried out as described ([Yang et al., 2016]). An assessment of the efficacy of ABA and CCPs was conducted by using 35-day-old Arabidopsis and 30-day-old wheat plants. Stock solutions (10 mM) of CCPs and ABA dissolved in dimethyl sulfoxide (DMSO) were diluted to the respective ligand concentrations (10, 30, 100 µM) in water containing 0.01% (v/v) Tween 20. Aqueous Tween 20 solutions supplemented with 0.1%, 0.3%, and 1% DMSO served for mock treatments. The solutions were sprayed onto the leaf surface until the run-off of droplets. One day after application (unless otherwise indicated), thermal imaging was conducted using the InfraTec instrument (IR-TCM 384, InfraTec, Dresden, Germany). The leaf temperature of Arabidopsis was determined as the average temperature of all leaves. The leaf temperature of wheat was determined as described ([Yang et al., 2019]).

[4] = system: Arabidopsis plants; experiment: Foliar administration and thermal imaging of leaf temperature (transpiration), Arabidopsis; assay type: in vivo, Arabidopsis thaliana
Procedure: as §2

[5] = system: T2, RCAR8/PYL5-ABI2; experiment: Yeast ABA signal pathway LUC reporter, RCAR8-ABI2; assay type: cell-based, Arabidopsis thaliana
T2 construct: expressed in transfected cells; host or cells: yeast (LUC reporter strain)
Procedure: (§3) The yeast cultivation and the life luciferase assay were performed as described ([Ruschhaupt et al., 2019]). Briefly, the reporter yeast expressing an ABA-dependent luciferase gene (LUC) was transformed with different combinations of ABA signaling components as indicated. Golden gate cloning ([Binder et al., 2014]) was used to construct pYEAST_LII_5‐6_CEN_URA vector with TDH3 promoter and TDH1 terminator (tTDH1), pYEAST_LII_1‐2_CEN_LEU vector with GK1 promoter and tTDH1, and pYEAST_LII_3‐4_CEN_TRP with the GAL1 promoter (pGAL1) and tTDH1 to express RCARs, PP2Cs, and OST1 (SnRK2.6), respectively ([Ruschhaupt et al., 2019]). The expression of ABF2 in yeast relies on a modified pGREG503 vector, in which pGAL1 ([Jansen et al., 2005]) was replaced by the ADH1 promoter.
(§4) Colonies of freshly transformed cells were inoculated in 0.5 mL supplemented synthetic dextrose (SD) medium and incubated at 30°C in a gyratory shaker (Thermoshake-THO500, Gerhardt, Königswinter, Germany) at 200 rpm for 16-18 h. After overnight growth, the cells were harvested and washed in SD medium followed by inoculation in SD medium containing 2% galactose for induction of SnRK2 kinases under the control of the GAL1 promoter and supplementation with ligands at indicated concentrations, to an OD600 of 0.2 in flat-bottom 96-well plates (CytoOne, Starlab, Hamburg, Germany). Yeast cultures were incubated at 30°C and 200 rpm for 16-18 h before determination of LUC activity and cell density. Light emission of yeasts was detected in a HIDEX plate luminometer (HIDEX, Turku, Finland) after injection of 100 µL freshly prepared luciferin substrate (1 mM D-luciferin, Promega) provided in 100 mM citric acid, pH 3 ([Leskinen et al., 2003]) for 5 s and was corrected for background. The LUC activity was normalized to the cell density (OD600) measured in 96-well flat plates (Sarstedt, Nümbrecht, Germany). LUC activity is given as the ratio of light emission to OD600 in counts per second.

[6] = system: RCAR11-ABI2; experiment: Yeast ABA signal pathway LUC reporter, RCAR11-ABI2; assay type: cell-based, Arabidopsis thaliana
Procedure: as §3, §4

[7] = molecular target: RCAR8-ABI2; experiment: In vitro phosphatase assay, ABI2 with RCAR8; assay type: biochemical, Arabidopsis thaliana; settings: 100 nM ABI2, 200 nM RCAR8
Procedure: as §1

[8] = system: RCAR1/PYL9-ABI2; experiment: Yeast ABA signal pathway LUC reporter, RCAR1-ABI2; assay type: cell-based, Arabidopsis thaliana
Procedure: as §3, with “The expression of ABF2 in yeast relies on a modified pGREG503 vector, in which pGAL1 ([Jansen et al., 2005]) was replaced by the ADH1 promoter.” left out
Colonies of freshly transformed cells were inoculated in 0.5 mL supplemented synthetic dextrose (SD) medium and incubated at 30°C in a gyratory shaker (Thermoshake-THO500, Gerhardt, Königswinter, Germany) at 200 rpm for 16-18 h. […] Light emission of yeasts was detected in a HIDEX plate luminometer (HIDEX, Turku, Finland) after injection of 100 µL freshly prepared luciferin substrate (1 mM D-luciferin, Promega) provided in 100 mM citric acid, pH 3 ([Leskinen et al., 2003]) for 5 s and was corrected for background. The LUC activity was normalized to the cell density (OD600) measured in 96-well flat plates (Sarstedt, Nümbrecht, Germany). […]

[9] = molecular target: T3, RCAR1-ABI2 (Arabidopsis thaliana, UniProt O04719+Q84MC7); experiment: In vitro phosphatase assay, ABI2 with RCAR1; assay type: biochemical; settings: for Statistical significance of RCAR1-mediated inhibition of ABI2 phosphatase activity vs ABA: Fig. 3B
T3 construct: 6xHis (N); made in house; host or cells: Escherichia coli BL21
T3 sequence (Q84MC7 1-187): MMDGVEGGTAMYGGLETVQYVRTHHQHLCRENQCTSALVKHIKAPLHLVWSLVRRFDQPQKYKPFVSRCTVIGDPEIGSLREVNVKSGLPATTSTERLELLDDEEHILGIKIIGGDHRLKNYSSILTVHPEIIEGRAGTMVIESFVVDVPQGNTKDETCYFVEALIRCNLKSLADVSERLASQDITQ
T3 sequence (O04719 1-423): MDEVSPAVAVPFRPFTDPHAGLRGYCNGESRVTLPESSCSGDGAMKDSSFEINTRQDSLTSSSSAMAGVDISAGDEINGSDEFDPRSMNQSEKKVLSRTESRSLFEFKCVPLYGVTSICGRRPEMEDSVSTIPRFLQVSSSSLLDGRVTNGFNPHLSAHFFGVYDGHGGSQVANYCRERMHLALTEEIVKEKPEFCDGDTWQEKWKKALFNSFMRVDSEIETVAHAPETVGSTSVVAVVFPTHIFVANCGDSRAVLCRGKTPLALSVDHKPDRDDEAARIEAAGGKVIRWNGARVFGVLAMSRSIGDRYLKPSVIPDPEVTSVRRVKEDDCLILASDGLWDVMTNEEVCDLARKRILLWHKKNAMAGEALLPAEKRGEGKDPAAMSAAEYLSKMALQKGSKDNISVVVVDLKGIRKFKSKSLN
Procedure: as §1

Structure (SMILES): CC(=C/C(=O)O)/C=C/C(O)(C(C)C)C1(C#N)CC1 (stereo not shown) [CCP1, (2Z,4E)-6-(1-cyanocyclopropyl)-3-methyl-6-hydroxy-7-methylocta-2,4-dienoic acid]
- Inhibition of ABI2 compared to ABA [1]: comparable to ABA
- Activity in in vitro inhibition of ABI1 phosphatase activity [2]: ABA-like activity
- Leaf temperature increase, activity compared to ABA [3]: higher activity than ABA
- Potency in reducing transpiration compared to ABA ([4]; 10 µM): more potent than 100 µM ABA
- Higher leaf temperature ([4]; 30 µM, nineteen days after administration): 1.5 °C
- Duration of persistent response ([4]; 10 and 30 µM ligand treatment): 10 days
- Potency relative to ABA ([4]; 10 and 30 µM ligand vs 100 µM ABA): more than tenfold
- Duration of effect relative to ABA ([4]; 10 and 30 µM ligand vs ABA): approximately three times
- Efficiency in minimizing transpiration compared to ABA ([4]; foliar application): by an order of magnitude more efficient than ABA
- ABA concentration achieving a temperature increase similar to 10 µM of the CCP ([4]; one day after application): about 100 µM
- Activity and persistence of minimized transpiration compared to ABA ([4]; single application 100 µM, recorded for 19 days): more active and persistent than ABA
- Reporter induction relative to ABA ([5]; 1 µM exogenous ligand): approximately half the ABA induction
- Higher level required for induction value comparable to 1 µM ABA ([5]; yeast, RCAR8-ABI2): about 10 x
- LUC reporter induction compared to mock-treated cells ([6]; 30 µM exogenous ligand, 16 h exposure): approximately eightfold
- Activation of the ABA response compared to ABA ([6]; dose-dependent, 0.1-30 µM): comparable activity to ABA
- IC50 relative to ABA (fold higher) [7]: around 10 fold
- Higher exogenous concentration required for reporter expression comparable to 1 µM ABA [8]: approximately 30 x
- Statistical significance of RCAR1-mediated inhibition of ABI2 phosphatase activity vs ABA ([9]; 0.003 µM): ns (Otherwise, the difference is regarded as insignificant indicated as “ns”)
- Statistical significance of RCAR1-mediated inhibition of ABI2 phosphatase activity vs ABA ([9]; 0.01 µM): s (P < 0.05 (one-way ANOVA) is considered as a significant difference and expressed as “s”)
- Statistical significance of RCAR1-mediated inhibition of ABI2 phosphatase activity vs ABA ([9]; 0.03 µM): s (P < 0.05 (one-way ANOVA) is considered as a significant difference and expressed as “s”)
- Statistical significance of RCAR1-mediated inhibition of ABI2 phosphatase activity vs ABA ([9]; 0.1 µM): s (P < 0.05 (one-way ANOVA) is considered as a significant difference and expressed as “s”)
- IC50 relative to ABA (fold higher) ([9]; 100 nM ABI2 and 200 nM RCAR1): approximately 100 fold
- Statistical significance of RCAR1-mediated inhibition of ABI2 phosphatase activity vs ABA ([9]; 0.3 µM): s (P < 0.05 (one-way ANOVA) is considered as a significant difference and expressed as “s”)
- Statistical significance of RCAR1-mediated inhibition of ABI2 phosphatase activity vs ABA ([9]; 1 µM): s (P < 0.05 (one-way ANOVA) is considered as a significant difference and expressed as “s”)
- Statistical significance of RCAR1-mediated inhibition of ABI2 phosphatase activity vs ABA ([9]; 3 µM): s (P < 0.05 (one-way ANOVA) is considered as a significant difference and expressed as “s”)
- Statistical significance of RCAR1-mediated inhibition of ABI2 phosphatase activity vs ABA ([9]; 10 µM): s (P < 0.05 (one-way ANOVA) is considered as a significant difference and expressed as “s”)
- Statistical significance of RCAR1-mediated inhibition of ABI2 phosphatase activity vs ABA ([9]; 30 µM): s (P < 0.05 (one-way ANOVA) is considered as a significant difference and expressed as “s”)
- Statistical significance of RCAR1-mediated inhibition of ABI2 phosphatase activity vs ABA ([9]; 100 µM): s (P < 0.05 (one-way ANOVA) is considered as a significant difference and expressed as “s”)
